Laboratory results: US20170002011A1, “BENZENE SULFONAMIDES AS CCR9 INHIBITORS” (NORGINE B.V., priority 2013, published 2017)

Key:
[1] = molecular target: T1, CCR9 (Homo sapiens, UniProt P51686); experiment: FLIPR calcium flux assay using MOLT4 cells (TECK stimulation); assay type: cell-based; design: endogenous in cells; host or cells: MOLT4 (human T-cell line); settings: MOLT4 cells (a human T-cell line); Ki determined from IC50 of TECK-induced intracellular calcium increase
T1 sequence (P51686 1-369): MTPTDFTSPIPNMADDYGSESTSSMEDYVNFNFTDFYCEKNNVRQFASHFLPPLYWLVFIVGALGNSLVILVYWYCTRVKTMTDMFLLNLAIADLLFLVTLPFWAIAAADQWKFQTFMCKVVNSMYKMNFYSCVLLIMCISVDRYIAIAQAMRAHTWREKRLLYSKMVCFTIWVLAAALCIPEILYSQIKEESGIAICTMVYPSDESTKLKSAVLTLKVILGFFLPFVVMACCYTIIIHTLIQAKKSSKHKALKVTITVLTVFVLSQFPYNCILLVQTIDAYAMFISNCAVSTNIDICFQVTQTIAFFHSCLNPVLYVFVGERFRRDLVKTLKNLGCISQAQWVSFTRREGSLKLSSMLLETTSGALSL
Protocol: Biological Activity: FLIPR Assay Using MOLT4 Cells
A calcium flux assay was used to determine the ability of the compounds to interfere with the binding between CCR9 and its chemokine ligand (TECK) in MOLT4 cells (a human T-cell line). MOLT4 cells were seeded (100,000 cells/well) in coming cell culture plates (Cat #3603) in assay buffer (lx HBSS, 20 mM HEPES) containing 2.5 mM Probenecid. The plate was centrifuged at 1200 rpm for 3 minutes and incubated at 37° C./5% CO2 for 2 hours. A 0.3× Fluo-4 NW calcium dye was prepared in assay buffer containing 5 mM Probenecid and stored in the dark. Each well was loaded with 25 μL of 0.3× Fluo-4 NW calcium dye and incubated at 37 C/5% CO2 for 60 minutes and then at room temperature for 30 minutes. A half-log serially diluted concentration response curve was prepared at a 4× concentration for each (10 μM-0.1 nM final assay concentration) and 25 μL of the compound then transferred to the cells (100 μL final volume) for 60 minutes prior to stimulation (30 minutes at 37° C./5% CO2 and 30 minutes at room temperature). TECK was diluted to 5× its EC50 in assay buffer (containing 0.1% [w/v] bovine serum albumin [BSA]) and 25 μL dispensed through the FLIPR instrument to stimulate the cells (125 μL final volume). The increased in intracellular calcium levels was measured with the FLIPR instrument. The potency of the compound as CCR9 antagonist was calculated as an IC50 using GraphPad Prism software (variable slope four parameter). The Ki of the compound was determined from the IC50 values using the following equation.
(§1) Ki calculation: IC50/1+(Agonist (TECK) conc. used in assay/EC50 of agonist (TECK) generated on day of experiment)

[2] = molecular target: T1, CCR9; experiment: FLIPR calcium flux assay using hCCR9 over expressed cells (TECK stimulation); assay type: cell-based; design: expressed in transfected cells; host or cells: Chem-1 cells overexpressing hCCR9; settings: Chem1-hCCR9 overexpressing cells; Ki determined from IC50 of TECK-induced intracellular calcium increase
Protocol: Biological Activity: FLIPR Assay Using hCCR9 Over Expressed Cells
A calcium flux assay was used to determine the ability of the compounds to interfere with the binding between CCR9 and its chemokine ligand (TECK) in Cheml-hCCR9 overexpressing cells. hCCR9 overexpressing cells were seeded (25,000 cells/well) into black Poly-D-Lysine coated clear bottom 96-well plates (BD Biosciences, Cat #356640) and incubated overnight at 37° C./5% CO2 in a humidified incubator. Media was aspirated and cells washed twice with 100 μL assay buffer (1×HBSS, 20 mM HEPES) containing 2.5 mM Probenecid. A 0.3× Fluo-4 NW calcium dye was prepared in assay buffer containing 5 mM Probenecid and stored in the dark. Each well was loaded with 100 μL of 0.3× Fluo-4 NW calcium dye and incubated at 37° C./5% CO2 for 60 minutes and then at room temperature for 30 minutes. A half-log serially diluted concentration response curve was prepared at a 3× final assay concentration for each compound (10 μM−0.1 nM final assay concentration) and 50 μL of the compound then transferred to the cells (150 μL final volume) for 60 minutes prior to stimulation (30 minutes at 37° C./5% CO2 and 30 minutes at room temperature). TECK was diluted to 4× its ECso in assay buffer (containing 0.1% [w/v] bovine serum albumin[BSA]) and 50 μL dispensed through the fluorometric imaging plate reader (FLIPR) instrument to stimulate the cells (200 μL final volume). The increase in intracellular calcium levels was measured with the FLIPR instrument. The potency of the compound as a CCR9 antagonist was calculated as an IC50 using GraphPad Prism software (variable slope four parameter). The Ki of the compound was determined from the IC50 values using the following equation.
as §1

| Structure (SMILES) | Ki [1] | Ki [2] |
| --- | --- | --- |
| CC(C)(C)c1ccc(S(=O)(=O)Nc2ccnc3cc(C4CC4)nn23)cc1 [Compound 37, 4-(tert-butyl)-N-(2-cyclopropylpyrazolo[1,5-a]pyrimidin-7-yl)benzenesulfonamide] | 703 nM | 1950 nM |
| CC(C)c1cc2nccc(NS(=O)(=O)c3ccc(C(C)(C)C)cc3)n2n1 [Compound 79, 4-(tert-butyl)-N-(2-isopropylpyrazolo[1,5-a]pyrimidin-7-yl)benzenesulfonamide] | 295 nM | 1520 nM |
| CCc1cc2nccc(NS(=O)(=O)c3ccc(C(C)(C)C)cc3)n2n1 [Compound 85, 4-(tert-butyl)-N-(2-ethylpyrazolo[1,5-a]pyrimidin-7-yl)benzenesulfonamide] | 111 nM | 1800 nM |
| Cc1cc2c(Cl)ccc(NS(=O)(=O)c3ccc(C(C)(C)C)cc3)n2n1 [Compound 94, 4-(tert-butyl)-N-(4-chloro-2-methylpyrazolo[1,5-a]pyridin-7-yl)benzenesulfonamide] | 162 nM | 181 nM |
| Cc1cc2c(C#N)ccc(NS(=O)(=O)c3ccc(C(C)(C)C)cc3)n2n1 [Compound 95, 4-(tert-butyl)-N-(4-cyano-2-methylpyrazolo[1,5-a]pyridin-7-yl)benzene sulfonamide] | 2 nM | 110 nM |
| Cc1cc2c(Cl)ccc(NS(=O)(=O)c3ccc(C(C)(C)C#N)cc3)n2n1 [Compound 98] | 109 nM | 512 nM |
| CC(C)(C)c1ccc(S(=O)(=O)Nc2ccc(Cl)c3cc(C4CC4)nn23)cc1 [Compound 105] | 285 nM | 56 nM |
| CC(C)(C)c1ccc(S(=O)(=O)Nc2ccc(Cl)c3cc(-c4cccnc4)nn23)cc1 [Compound 110, 4-(tert-butyl)-N-(4-chloro-2-(pyridin-3-yl)pyrazolo[1,5-a]pyridin-7-yl)benzenesulfonamide] | 115 nM | 394 nM |
| CC(C)(C)c1ccc(S(=O)(=O)Nc2ccc(Cl)c3cc(-c4ccc[n+]([O-])c4)nn23)cc1 [Compound 111, 3-(7-((4-(tert-butyl)phenyl)sulfonamido)-4-chloropyrazolo[1,5-a]pyridin-2-yl)pyridine 1-oxide] | 56 nM | 190 nM |
| O=S(=O)(Nc1ccc(Cl)c2cc(-c3cccnc3)nn12)c1ccc(C(F)(F)F)cc1 [Compound 113] | 187 nM | 756 nM |
| CC(C)(C)c1ccc(S(=O)(=O)Nc2ccc(C#N)c3cc(-c4cccnc4)nn23)cc1 [Compound 149, 4-(tert-butyl)-N-(4-cyano-2-(pyridin-3-yl)pyrazolo[1,5-a]pyridin-7-yl)benzenesulfonamide] | 87 nM | 159 nM |
| Cn1nccc1-c1cc2c(C#N)ccc(NS(=O)(=O)c3ccc(C(C)(C)C)cc3)n2n1 [Compound 152] | 41 nM | 125 nM |
| CC(C)(C)c1ccc(S(=O)(=O)Nc2ccc(C#N)c3cc(-c4cncc(F)c4)nn23)cc1 [Compound 156, 4-(tert-butyl)-N-(4-cyano-2-(5-fluoropyridin-3-yl)pyrazolo[1,5-a]pyridin-7-yl)benzenesulfonamide] | 51 nM | 107 nM |
| Cc1cc(-c2cc3c(C#N)ccc(NS(=O)(=O)c4ccc(C(C)(C)C)cc4)n3n2)n(C)n1 [Compound 158] | 48 nM | 186 nM |
| Cn1ccc(-c2cc3c(C#N)ccc(NS(=O)(=O)c4ccc(C(C)(C)C)cc4)n3n2)c1 [Compound 159] | 96 nM | 136 nM |
| COc1cncc(-c2cc3c(C#N)ccc(NS(=O)(=O)c4ccc(C(C)(C)C)cc4)n3n2)c1 [Compound 161] | 62 nM | 127 nM |
| CC(C)(C)c1ccc(S(=O)(=O)Nc2ccc(C#N)c3cc(-c4cn[nH]c4)nn23)cc1 [Compound 164, 4-(tert-butyl)-N-(4-cyano-2-(1H-pyrazol-4-yl)pyrazolo[1,5-a]pyridin-7-yl)benzenesulfonamide] | 34 nM | 112 nM |

| Structure (SMILES) | Ki [1] | Ki [2] |
| --- | --- | --- |
| CC(C)(C)c1ccc(S(=O)(=O)Nc2ccc(Cl)c3cc(-c4cnco4)nn23)cc1 [Compound 169, 4-(tert-butyl)-N-(4-chloro-2-(oxazol-5-yl)pyrazolo[1,5-a]pyridin-7-yl)benzenesulfonamide] | 164 nM | 343 nM |
| CC(C)(C)c1ccc(S(=O)(=O)Nc2ccc(Cl)c3cc(-c4ccsc4C(=O)O)nn23)cc1 [Compound 172, 3-(7-((4-(tert-butyl)phenyl)sulfonamido)-4-chloropyrazolo[1,5-a]pyridin-2-yl)thiophene-2-carboxylic acid] | 79 nM | 129 nM |
| CC(C)(C)c1ccc(S(=O)(=O)Nc2c(C#N)ccc3cc(-c4cccnc4)nn23)cc1 [Compound 180, 4-(tert-butyl)-N-(6-cyano-2-(pyridin-3-yl)pyrazolo[1,5-a]pyridin-7-yl)benzenesulfonamide] | 30 nM | 133 nM |
| Cn1cnc(-c2cc3c(Cl)ccc(NS(=O)(=O)c4ccc(C(C)(C)C)cc4)n3n2)c1 [Compound 182] | 80 nM | 168 nM |
| Cn1ccc(-c2cc3c(Cl)ccc(NS(=O)(=O)c4ccc(C(C)(C)C)cc4)n3n2)n1 [Compound 183] | 95 nM | 94 nM |
| Cn1ccc(-c2cc3c(C#N)ccc(NS(=O)(=O)c4ccc(C(C)(C)C)cc4)n3n2)n1 [Compound 184] | 22 nM | 17 nM |
| CC(C)n1cc(-c2cc3c(Cl)ccc(NS(=O)(=O)c4ccc(C(C)(C)C)cc4)n3n2)cn1 [Compound 186] | 31 nM | 67 nM |
| CCn1cc(-c2cc3c(C#N)ccc(NS(=O)(=O)c4ccc(C(C)(C)C)cc4)n3n2)cn1 [Compound 189] | 10 nM | 22 nM |
| Cc1c(-c2cc3c(C#N)ccc(NS(=O)(=O)c4ccc(C(C)(C)C)cc4)n3n2)cnn1C [Compound 190] | 54 nM | 114 nM |
| CC(C)n1cc(-c2cc3c(C#N)ccc(NS(=O)(=O)c4ccc(C(C)(C)C)cc4)n3n2)cn1 [Compound 191] | 19 nM | 9 nM |
| Cn1nnc(-c2cc3c(Cl)ccc(NS(=O)(=O)c4ccc(C(C)(C)C)cc4)n3n2)n1 [Compound 192] | 161 nM | 183 nM |
| COc1ccc(-c2cc3c(C#N)ccc(NS(=O)(=O)c4ccc(C(C)(C)C)cc4)n3n2)cn1 [Compound 198] | 26 nM | 54 nM |
| Cc1cncc(-c2cc3c(Cl)ccc(NS(=O)(=O)c4ccc(C(C)(C)C)cc4)n3n2)c1 [Compound 199] | 105 nM | 63 nM |
| Cc1cncc(-c2cc3c(C#N)ccc(NS(=O)(=O)c4ccc(C(C)(C)C)cc4)n3n2)c1 [Compound 200] | 20 nM | 12 nM |
| COc1ncccc1-c1cc2c(C#N)ccc(NS(=O)(=O)c3ccc(C(C)(C)C)cc3)n2n1 [Compound 202] | 107 nM | 127 nM |
| Cc1ncccc1-c1cc2c(Cl)ccc(NS(=O)(=O)c3ccc(C(C)(C)C)cc3)n2n1 [Compound 203] | 85 nM | 149 nM |
